Measurements published in publication PMC6459484, “Synthetic surfactin analogues have improved anti-PEDV properties” (PLoS ONE, 2019).
In brackets after ≈: the same amount, converted by molar mass. Square brackets hold non-standard residues; d marks the D form. Peptide text beside a SMILES is read from it. * marks the point of attachment. Palmitoyl = CCCCCCCCCCCCCCCC(=O)*

What was measured:
PEDV CV777 = experiment: Plaque reduction assay (anti-PEDV activity); assay type: cell-based, Porcine epidemic diarrhea virus
Description: Cercopithecus aethiops kidney epithelial cells (Vero, ATCC, CCL-81) were cultured in high glucose DMEM (Gibco, US), supplemented with 10% fetal bovine serum (FBS, GIBCO), at 37 °C in a 5% CO2 humidified atmosphere. Cells were routinely seeded at a density of 2×10^5 /mL in plastic tissue culture flasks (25 cm^2 flasks, Corning, USA) and passaged every 3–4 days. PEDV CV777 was provided by the Jiangsu Academy of Agricultural Sciences (JAAS).
Vero cells were seeded at 2 × 10^5 cells/well in 24-well tissue culture plates and incubated 18–24 h at 37 °C until approximately 95% confluency was reached. 100 PFU of PEDV mixed with an equal volume of SLP in DMEM or DMEM alone were incubated 10 minutes at 37 °C, then added into the wells of the Vero cells and incubated 30 minutes at 4 °C. Cells were washed 3 times with DMEM then overlaid with DMEM/1% agar and incubated 72 hours at 37 °C. The cells were fixed with 4% formaldehyde, then stained with 0.1% crystal violet after the agar overlay was removed. The data are representative of 3 biological replicates and each plaque assay was performed in triplicate and values are expressed as means ± the standard deviation. Curve fitting and EC50 were calculated with GraphPad Prism 6 using the log[inhibitor] vs. response equation.
The SLPs were tested for anti-PEDV activity using a plaque reduction assay. Serial dilutions of SLPs were incubated with an equal volume of PEDV then aliquoted onto precooled cells in 12-well plates. After the virus has adsorbed to the cells at 4 °C, SLPs were washed away. The adsorbed virus particles were then counted by plaque forming assays (Fig 2A). The results were fitted to a sigmoid-curve and plotted Fig 2B. All SLPs have potent anti-PEDV effects above 50 μg/ml, but differences in their anti-PEDV effect.
Fig 2 Anti-PEDV activities of lipopeptides. (A) PEDV was incubated with series concentrations of SLPs for 10 minutes at 37 °C. After washing cells of unadsorbed virus, the remaining infectious particles was detected by plaque assay. (B) Anti-PEDV activity (% remaining PFU) plotted as a function of lipopeptide concentration. The results of three independent experiments are shown as means ± standard deviation. 100% represents plaque counts in the control (no lipopeptide) sample.

[1] = HPLC retention time as measure of hydrophobicity; assay type: physicochemical; conditions: used as indicator of total hydrophobicity, SLP1>SLP2>SLP3
Excerpt: The cationic properties of synthetic lipopeptides are thought to be related to their antibacterial and hemolytic activities. […] Cyclic lipopeptides are reported to more readily lyse bacterial membranes than linear or branched lipopeptides. […] It has also been reported that the total hydrophobicity of synthetic lipopeptides is inversely related to hemolytic activity, although this conclusion was from data on only 3 related samples [27]. […] The relative hydrophobicity of SLP1, 2, and 3 is SLP1>SLP2>SLP3, as indicated by their HPLC retention times (17.6, 16.7, and 14.5 min, respectively).

[2] = Critical micelle concentration by surface tension (ring method); assay type: physicochemical; conditions: samples stood 30 min at 22 °C, intersection of two linear regression lines
Description: Surface tensions were measured using the ring method. Samples were freshly prepared in a testing flask and allowed to stand for 30 minutes at 22 °C. Surface tension measurements were made using a surface tensiometer (HLD-LST-II, HENLIDA Co., Ltd, China). Linear regressions of the drop and the flat area were performed separately for the surface tension-concentration curve. The concentration at the intersection of the two lines is the critical micelle concentration (CMC).
The CMC was calculated by measuring the surface tension of each SLP over a range of concentrations. […] Linear regressions were performed independently using the data on the descending part of the curve below the CMC and the equilibrium part above the CMC. The intersection of the linear regression lines corresponds to the CMC (Table 3).
Fig 4 Critical micelle concentrations of the SLPs. CMCs were determined for SDS, surfactin, and SLPs by surface tension. The intersection of the two linear regression lines corresponds to the CMC value, (shown by the dotted lines).

porcine RBCs = assay type: cell-based; conditions: for CC50 (50% cytotoxicity concentration, hemolysis): red cells of porcine, 1 h
Description: Hemolytic activity was measured according to the methods described in Jingdan, with some modifications. Briefly, serial dilutions of SLPs were added to 200 uL of a 1% suspension of porcine RBCs in PBS, followed by incubation for 1 h at 37 °C. Cells were centrifuged at 1000 g for 10 min, then 100 uL of each supernatant was transferred to wells of a 96-well plate. The optical density at 540 nm was measured using a microplate reader (Infinite 200 PRO, Tecan Group Ltd., Switzerland) and % hemolysis was calculated using the formula: Hemolysis(%)=ODS-ODB/ODP-ODB×100% where ODS, ODB, and ODP represent the optical density of the SLP-treated samples, negative control and positive control, respectively. 1% Triton X-100 was used for the positive control. Each sample was run in triplicate.
Fig 3 Hemolytic activity of lipopeptides. (A) The indicated concentration of SLPs were added to a 1% porcine RBC suspension in PBS, followed by incubation for 1 h at 37 °C and centrifugation. Pictures were taken after collecting a portion of the supernatant for quantification of hemolysis. (B) Hemolytic curve. Hemolysis (measured at OD540) is shown as a function of SLP concentration. 100% represents the OD obtained using 0.1% Triton X-100-treated red blood cells.

PEDV [3] = experiment: Time of addition assay (viral N protein by western blot, viral RNA by qRT-PCR); assay type: cell-based, Porcine epidemic diarrhea virus; conditions: Vero cells, 1000 PFU PEDV, harvested 12 hpi, SLP5 50 μg/ml, surfactin 20 μg/ml
Description: Time of addition assay was performed according to the procedures described, with modifications. Confluent Vero cells in 12-well plates were infected with 1000 PFU of PEDV and incubated for 1 hr at 4 °C to synchronize infection. The inoculum was removed and 1 mL of 37 °C DMEM was added to each well, cells were then placed at 37 °C in a humidified incubator. At the indicated time points, SLP5, surfactin, or dielaidoyl-phosphatidylethanolamine (DEPE, AvantiPolarLipids, Alabaster, AL) was added dropwise to cells or virus to a final concentration of 50 μg/ml, 20 μg/ml, or 5 μg/ml and incubated a further 12 hours at 37 °C. Viral nucleic acid and protein levels in the cells were measured by qRT-PCR and western-blot respectively. The data shown is representative of 3 independent experiments.
Total RNA was extracted from cells using TRIzol Reagent (Invitrogen) according to the manufacturer’s instructions. cDNA was generated by reverse transcription using HiScript TM QRT SuperMix for qPCR (Vazyme) according to the manufacturer’s instructions. PEDV nucleic acid levels were assessed by measuring the viral nucleoprotein (N) using qRT-PCR with the TaKaRa SYBR Green qPCR Kit (TaKaRa). Primer sequences were as follows: PEDV-N-F (sense), 5’-[…]-3’; PEDV-N-R (antisense), 5’-[…]-3’; C-sabaeus-GAPDH-F, 5’-[…]-3’; C-sabaeus-GAPDH-R, 5’-[…]-3’. Gene level was calculated using the comparative Ct method and normalized to the endogenous levels of GAPDH.
Boiled cell lysates were subjected to SDS-PAGE then transferred to PVDF membrane (Roche, Basel, Switzerland) using a semi-dry transfer apparatus (GE, Little Chalfont, Buckinghamshire, UK). Membranes were blocked in 5% non-fat milk in TBS containing 0.01% Tween-20 (TBST) then incubated overnight at 4 °C with anti-PEDV N-protein monoclonal antibody (Median Diagnostics, South Korea) diluted in TBST with 1% BSA. Membranes were washed 30 min in TBST followed by incubation for 1 h at RT with 1:5000 HRP goat anti-mouse IgG antibody (ABGENT, San Diego, CA, USA) then thrice washed for 15 min in TBST. Membranes were incubated with ECL reagent (Thermo, Waltham, MA, USA) and imaged using a ChemiDoc™ system (Bio-Rad, Hercules, CA, USA).
Since SLP5 was the most promising surfactin analogue, we chose it for further study. Time of addition assays were performed to determine whether the SLP5 exerts its anti-PEDV effect at the same stage during infection as surfactin. Since surfactin acts directly on virions, the experiment was designed to examine events early in the infection process. Fig 6A summarizes the experimental plan and the eight treatments tested. Briefly, SLP5, surfactin, or DEPE was added to virus alone, cells alone, or to cells and virus together prior to infection, during virus adsorption, during virus invasion (1 h post infection at 37 °C), or during replication (1–12 hpi). Samples were harvested 12 hours after infection, and analyzed to measure cellular levels of viral protein (Fig 6B and 6C) and viral RNA (Fig 6D). […] Other antiviral mechanisms of SLP5 and surfactin cannot be ruled out since PEDV replication is inhibited to different degrees in some of the other treatment groups.
Fig 6 Time-of-addition experiments. (A) Vero cells were treated with SLP5, surfactin, or DEPE at different time points before, during, and after infection. […] (B) The PEDV nucleoprotein was detected by Western-blot, and (C) quantitated by band intensity relative to the internal control, GAPDH. (D) The PEDV genome was detected by qRT-PCR. […]

PEDV [4] = conditions: cited from earlier work
Excerpt: In summary, we synthesized 10 surfactin analogues and characterized them to identify those with enhanced anti-viral properties. […] SLP5 is therefore a more promising synthetic surfactin analogue. Compared with surfactin, the structure of SLP5 is distinguished by its linear lipopeptide and the additional carboxyl grou ...

[5] = 100 PFU PEDV pre-incubated with lipopeptide 10 min at 37 °C, adsorbed to Vero cells 30 min at 4 °C, washed, agar overlay 72 h, 3 biological replicates each in triplicate, mean ± SD, log[inhibitor] vs. response fit

With CCCCCCCCCCCCCCCC(=O)N[C@@H](CCC(=O)O)C(=O)N[C@H](C(=O)N[C@H](CC(C)C)C(=O)N[C@@H](C)C(=O)N[C@@H](CC(=O)O)C(=O)N[C@H](CC(C)C)C(=O)N[C@H](C(N)=O)C(C)C)C(C)C [SLP1] (Palmitoyl-EV[dL]AD[dL]V-NH2) the EC50 (PEDV CV777; 72 h) was 8.0 ± 0.3 µg/mL (≈ 8.04 µM), the “HPLC retention time (relative hydrophobicity)” value [1] was 17.6 min and the CMC [2] was 5.7 µg/mL. The “Hemolytic activity, result in words” value (porcine RBCs) was “slightly weaker than that of surfactin” and the “CC50 (50% cytotoxicity concentration, hemolysis)” value (porcine RBCs) was 52.6 ± 2.3 µg/mL (≈ 52.8 µM).
For CCCCCCCCCCCCCCCC(=O)N[C@@H](CCC(=O)O)C(=O)N[C@H](C(=O)N[C@H](CC(C)C)C(=O)N[C@@H](CC(=O)O)C(=O)N[C@H](CC(C)C)C(=O)N[C@H](C(N)=O)C(C)C)C(C)C [SLP2] (Palmitoyl-EV[dL]D[dL]V-NH2), the EC50 (PEDV CV777; 72 h) was 5.3 ± 0.5 µg/mL (≈ 5.73 µM), the “Anti-PEDV potency compared with surfactin” value (PEDV CV777; plaque reduction assay, result in words) was “higher potency than surfactin” and the “HPLC retention time (relative hydrophobicity)” value [1] was 16.7 min. For the same compound, the CMC [2] was 4.2 µg/mL and the “CC50 (50% cytotoxicity concentration, hemolysis)” value (porcine RBCs) was 33.0 ± 1.6 µg/mL (≈ 35.7 µM).
For CCCCCCCCCCCCCCCC(=O)N[C@@H](CCC(=O)O)C(=O)N[C@H](C(=O)N[C@H](CC(C)C)C(=O)N[C@@H](CC(=O)O)C(=O)N[C@H](CC(C)C)C(N)=O)C(C)C [SLP3] (Palmitoyl-EV[dL]D[dL]-NH2), the EC50 (PEDV CV777; [5]) was 16.9 ± 1.6 µg/mL (≈ 20.5 µM), the “HPLC retention time (relative hydrophobicity)” value [1] was 14.5 min and the CMC [2] was 6.4 µg/mL. For the same compound, the “CC50 (50% cytotoxicity concentration, hemolysis)” value (porcine RBCs) was 69.7 ± 2.6 µg/mL (≈ 84.5 µM).
In the case of Surfactin, the “PEDV replication (nucleic acid and protein levels), reagent present throughout the experiment (treatment group 2) or at any stage” value (PEDV [3]; DEPE 5 μg/ml, 3 independent experiments) is reported as “little PEDV replication occurs”, the “PEDV replication, treatment group 5” value (PEDV [3]; same as group 2 (little replication)) is reported as “act directly on the virus” and the EC50 (PEDV CV777; [5]) is reported as 11.4 ± 0.7 µg/mL. For the same compound, the CMC [2] was 12.1 µg/mL and the “Protection of piglets from PEDV challenge” value (PEDV [4]) was “protect piglets from PEDV challenge”.
